Measured values from patent US7592373B2 (Boehringer Ingelheim International GmbH, priority 2003, dated 2009).
Where a name gives a salt, the structure may show the parent alone.

Compound	melting point [°C]
CCN(Cc1ccc(CCC(=O)Nc2ccc(-c3ccc(Cl)cc3)cc2)cc1)CC(C)(C)O [Example 6.42, N-(4′-chlorobiphenyl-4-yl)-3-(4-{[ethyl-(2-hydroxy-2-methylpropyl)amino]methyl}phenyl)propionamide]	135
CCN(CC)CCc1ccc(NC(=O)C#Cc2ccc(C(F)(F)F)cc2Cl)cc1 [Example 3.35, 3-(2-chloro-4-trifluoromethylphenyl)propynoic acid-[4-(2-diethylaminoethyl)phenyl]amide]	145 to 150
O=C(CCc1ccc(CN2CCC(CO)CC2)cc1)Nc1ccc(-c2ccc(Cl)cc2)cc1 [Example 6.6, N-(4′-chlorobiphenyl-4-yl)-3-[4-(4-hydroxymethylpiperidin-1-ylmethyl)phenyl]propionamide]	185 to 186
CC1CC(C)CN(Cc2ccc(NC(=O)C#Cc3ccc(-c4ccc(Cl)cc4)cc3)cc2)C1 (stereo not shown) [Example 3.12, 3-(4′-chlorobiphenyl-4-yl)propynoic acid-[4-(3,5-dimethylpiperidin-1-ylmethyl)phenyl]amide]	209 to 214
CC1CN(Cc2ccc(CCC(=O)Nc3ccc(-c4ccc(Cl)cc4)cc3)cc2)CC(C)O1 (stereo not shown) [Example 6.21, N-(4′-chlorobiphenyl-4-yl)-3-[4-(2,6-dimethylmorpholin4-ylmethyl)phenyl]propionamide]	158.5 to 160.5
COc1cc(NC(=O)C#Cc2ccc(C(F)(F)F)cc2Cl)ccc1OCCN(C)CC1CC1 (as salt: hydrochloride) [Example 4.278, 3-(2-chloro-4-trifluoromethylphenyl)propynoic acid-{4-[2-(cyclopropylmethylmethylamino)ethoxy]-3-methoxyphenyl}amide hydrochloride]	173 to 176
CC1CCN(CCOc2ccc(NC(=O)C#Cc3ccc(C(F)(F)F)cc3Cl)cc2)CC1 (as salt: hydrochloride) [Example 3.45, 3-(2-chloro-4-trifluoromethylphenyl)propynoic acid {4-[2-(4-methylpiperidin-1-yl)ethoxy]phenyl}amide hydrochloride]	240 to 245
CNC1(c2ccc(C#CC(=O)Nc3ccc(-c4ccc(Cl)cc4)cc3)cc2)CC1 (as salt: trifluoroacetate) [Example 1.423, 3-[4-(1-methylaminocyclopropyl)phenyl]propynoic acid-(4′-chlorobiphenyl-4-yl)amide trifluoroacetate]	217.3
CN(C(=O)CCc1ccc(CN2CCC3(CCCC3)CC2)cc1)c1ccc(-c2ccc(Cl)cc2)cc1 [Example 6.45, 3-[4-(8-azaspiro[4.5]dec-8-ylmethyl)phenyl]-N-(4′-chlorobiphenyl-4-yl)-N-methylpropionamide]	119
O=C(CCc1ccc(CN2CCCC2)cc1)Nc1ccc(-c2ccc(Cl)cc2)cc1 [Example 6.11, N-(4′-chlorobiphenyl-4-yl)-3-(4-pyrrolidin-1-ylmethylphenyl)propionamide]	183 to 184
O=C(CCc1ccc(CNCC2CC2)cc1)Nc1ccc(-c2ccc(Cl)cc2)cc1 [Example 6.15, N-(4′-chlorobiphenyl-4-yl)-3-{4-[(cyclopropylmethylamino)methyl]phenyl}propionamide]	191 to 192
CN(Cc1ccc(CCC(=O)Nc2ccc(-c3ccc(Cl)cc3)cc2)cc1)CC1CC1 [Example 6.13, N-(4′-chlorobiphenyl-4-yl)-3-{4-[(cyclopropylmethylmethylamino)methyl]phenyl}propionamide]	156
O=C(Nc1ccc(-c2ccc(Cl)cc2)cc1)C1CC1c1ccc(CN2CCOCC2)cc1 (stereo not shown) [Example 6.217, 2-(4-morpholin-4-ylmethylphenyl)cyclopropanecarboxylic acid (4′-chlorobiphenyl-4-yl)amide]	187 to 188
CC#Cc1ccc(NC(=O)C#Cc2ccc(CN3CCCCC3)cc2)cc1 [Example 1.2, 3-(4-piperidin-1-ylemthylphenyl)propynoic acid-(4-prop-1-ynylphenyl)amide]	180 to 181
CC(C)N(Cc1ccc(CCC(=O)Nc2ccc(-c3ccc(Cl)cc3)cc2)cc1)C1CCCCC1 [Example 6.40, N-(4′-chlorobiphenyl-4-yl)-3-{4-[(cyclohexylisopropylamino)methyl]phenyl}propionamide]	165
COC1CCN(Cc2ccc(C#CC(=O)Nc3ccc(-c4ccc(Cl)cc4)cc3)cc2)CC1 [Example 1.36, 3-[4-(4-methoxypiperidin-1-ylmethyl)phenyl]propynoic acid-(4′-chlorobiphenyl-4-yl)amide]	145 to 146
CN(Cc1ccncc1)Cc1ccc(CCC(=O)Nc2ccc(-c3ccc(Cl)cc3)cc2)cc1 [Example 6.32, N-(4′-chlorobiphenyl-4-yl)-3-{4-[(methylpyridin-4-ylmethylamino)methyl]phenyl}propionamide]	102
CN(Cc1ccc(/C=C/C(=O)Nc2ccc(-c3ccc(Cl)cc3)cc2)cc1)C1CCNCC1 (as salt: acetate) [Example 5.36, (E)-N-(4′-chlorobiphenyl-4-yl)-3-{4[(methylpiperidin-4-ylamino)methyl]phenyl}acrylamide×trifluoroacetic acid acetate]	207 to 208
CC#Cc1ccc(NC(=O)C#Cc2ccc(CCN3CCCC3)cc2)cc1 [Example 2.5, 3-[4-(2-pyrrolidin-1-ylethyl)phenyl]propynoic acid-(4-prop-1-ynylphenyl)amide]	198 to 199

Compound	melting point [°C]
COc1cc(NC(=O)C#Cc2ccc(C(F)(F)F)cc2Cl)ccc1OCCN1CC(C)CC(C)C1 (stereo not shown) [Example 4.271, 3-(2-chloro-4-trifluoromethylphenyl)propynoic acid-{4-[2-(3,5-dimethylpiperidin-1-yl)ethoxy]-3-methoxyphenyl}amide]	196 to 201
O=C(C#Cc1ccc(C(F)(F)F)cc1Cl)Nc1ccc(CN2CCCCC2)cc1 (as salt: hydrochloride) [Example 3.41, 3-(2-chloro-4-trifluoromethylphenyl)propynoic acid(4-piperidin-1-ylmethylphenyl)amide hydrochloride]	193 to 195
COc1cc(NC(=O)C#Cc2ccc(C(F)(F)F)cc2Cl)ccc1OCCN1C(C)CCCC1C (stereo not shown) [Example 4.277, 3-(2-chloro-4-trifluoromethylphenyl)propynoic acid-{4-[2-(2,6-dimethylpiperidin-1-yl)ethoxy]-3-methoxyphenyl}amide]	225 to 227
CCN(CC)CCOc1ccc(N(C)C(=O)C#Cc2ccc(C(F)(F)F)cc2Cl)cc1 [Example 3.39]	135 to 138
O=C(C#Cc1ccc(C(F)(F)F)cc1Cl)Nc1ccc2c(ccn2CCN2CCCC2)c1 [Example 4.11, 3-(2-chloro-4-trifluoromethylphenyl)propynoic acid-[1-(2-pyrrolidin-1-ylethyl)-1H-indol-5-yl]amide]	200 to 205
CC1CCN(Cc2ccc(NC(=O)C#Cc3ccc(-c4ccc(Cl)cc4)cc3)cc2)CC1 [Example 3.14, 3-(4′-chlorobiphenyl-4-yl)propynoic acid-[4-(4-methylpiperidin-1-ylmethyl)phenyl]amide]	263 to 268
CN(Cc1ccc(C#CC(=O)Nc2ccc(-c3ccc(Cl)cc3)cc2)cc1)Cc1ccccn1 [Example 1.58]	217 to 218
CC1(O)CCN(Cc2ccc(CCC(=O)Nc3ccc(-c4ccc(Cl)cc4)cc3)cc2)CC1 [Example 6.9, N-(4′-chlorobiphenyl-4-yl)-3-[4-(4-hydroxy-4-methylpiperidin-1-ylmethyl)phenyl]propionamide]	192
O=C(/C=C/c1ccc(CN2CC[C@H](O)C2)cc1)Nc1ccc(-c2ccc(Cl)cc2)cc1 [Example 5.9, (E)-N-(4′-chlorobiphenyl-4-yl)-3-[4-((S)-3-hydroxypyrrolidin-1-ylmethyl)phenyl]acrylamide]	178 to 179
CCN(CC)CCOc1ccc(NC(=O)C#Cc2ccc(C(F)(F)F)cc2Cl)cc1N [Example 4.22, 3-(2-chloro-4-trifluoromethylphenyl)propynoic acid-[3-amino-4-(2-diethylaminoethoxy)phenyl]amide]	127 to 130
COc1cc(NC(=O)C#Cc2ccc(C(F)(F)F)cc2Cl)ccc1OCCN1CCC(C)CC1 [Example 4.270, 3-(2-chloro-4-trifluoromethylphenyl)propynoic acid-{3-methoxy-4-[2-(4-methylpiperidin-1-yl)ethoxy]phenyl}amide]	207 to 209
COc1ccc(-c2ccc(NC(=O)C#Cc3ccc(CN4CCC(Nc5ccccn5)CC4)cc3)cc2)cc1 [Example 1.11, 3-{4-[4-(pyridin-2-ylamino)piperidin-1-ylmethyl]phenyl}propynoic acid-(4′-methoxybiphenyl-4-yl)amide]	196 to 197
O=C(/C=C/c1ccc(CNC2CCCCC2)cc1)Nc1ccc(-c2ccc(Cl)cc2)cc1 [Example 5.33, (E)-N-(4′-chlorobiphenyl-4-yl)-3-(4-cyclohexylaminomethylphenyl)acrylamide]	247 to 248
COc1ccc(-c2ccc(NC(=O)C#Cc3ccc(CN4CCCCC4)cc3)cc2)cc1 [Example 1.8, 3-(4-piperidin-1-ylmethylphenyl)propynoic acid-(4′-methoxybiphenyl-4-yl)amide]	170
O=C(C#Cc1ccc(CNCCC2CCCCC2)cc1)Nc1ccc(-c2ccc(Cl)cc2)cc1 [Example 1.52, 3-{4-[(cyclohexylethylamino)methyl]phenyl}propynoic acid-(4′-chlorobiphenyl-4-yl)amide]	156 to 157
CCN(CC)CCOc1ccc(NC(=O)C#Cc2ccc(Cl)cc2Cl)cc1OC (as salt: hydrochloride) [Example 4.7, 3-(2,4-dichlorophenyl)propynoic acid-[3-methoxy-4-(2-diethylaminoethoxy)phenyl]amide hydrochloride]	205 to 207
COCCN(C)Cc1ccc(/C=C/C(=O)Nc2ccc(-c3ccc(Cl)cc3)cc2)cc1 [Example 5.14]	222 to 223
O=C(CCc1ccc(CN2CCN3CCCC3C2)cc1)Nc1ccc(-c2ccc(Cl)cc2)cc1 (stereo not shown) [Example 6.16, N-(4′-chlorobiphenyl-4-yl)-3-[4-(hexahydropyrrolo[1,2-a]pyrazin-2-ylmethyl)phenyl]propionamide]	177
